{"source": "BindingDB's records for doi:10.1073/pnas.0707365104", "about": "(Institut National De La Sant&#163, 2007)", "assay": "Inhibition of human telomerase expressed in HEK293T cells treated after telomerase elongation by telomeric repeat amplification protocol assay"}
{"smiles": "CN(C)c1ccc(Nc2c3ccc(NC(=O)CCN4CCCC4)cc3nc3cc(NC(=O)CCN4CCCC4)ccc23)cc1", "note": "[N,N'-(9-{[4-(dimethylamino)phenyl]amino}acridine-3,6-diyl)bis(3-pyrrolidin-1-ylpropanamide)]", "values": [{"measurement": "IC50", "result": 65, "unit": "nM"}]}
